# Assays:
# Histone deacetylase [1] = assay: Inhibition of HDAC in human HeLa cell nuclear extracts using Ac-NH-GGK(Ac)-AMC as substrate after 180 mins by fluorescence assay; format: protein assay
# [2] = target: Epidermal growth factor receptor (Homo sapiens, UniProt P00533); assay: Inhibition of recombinant EGFR (unknown origin) using poly-Glu-Tyr peptide as substrate
# Histone deacetylase [3] = assay: Inhibition of HDAC in human HeLa cells using Boc-K(Ac)-AMC as substrate preincubated for 4 hrs before substrate addition measured after 3 hrs by fluorescence assay; format: cell-based
# [4] = target: Tyrosine-protein kinase ABL1 (Homo sapiens, UniProt P00519); assay: Inhibition of recombinant Abl1 (unknown origin) using poly-Glu-Tyr peptide as substrate
# Chain of Tyrosine-protein kinase ABL1 (P00519 whole entry): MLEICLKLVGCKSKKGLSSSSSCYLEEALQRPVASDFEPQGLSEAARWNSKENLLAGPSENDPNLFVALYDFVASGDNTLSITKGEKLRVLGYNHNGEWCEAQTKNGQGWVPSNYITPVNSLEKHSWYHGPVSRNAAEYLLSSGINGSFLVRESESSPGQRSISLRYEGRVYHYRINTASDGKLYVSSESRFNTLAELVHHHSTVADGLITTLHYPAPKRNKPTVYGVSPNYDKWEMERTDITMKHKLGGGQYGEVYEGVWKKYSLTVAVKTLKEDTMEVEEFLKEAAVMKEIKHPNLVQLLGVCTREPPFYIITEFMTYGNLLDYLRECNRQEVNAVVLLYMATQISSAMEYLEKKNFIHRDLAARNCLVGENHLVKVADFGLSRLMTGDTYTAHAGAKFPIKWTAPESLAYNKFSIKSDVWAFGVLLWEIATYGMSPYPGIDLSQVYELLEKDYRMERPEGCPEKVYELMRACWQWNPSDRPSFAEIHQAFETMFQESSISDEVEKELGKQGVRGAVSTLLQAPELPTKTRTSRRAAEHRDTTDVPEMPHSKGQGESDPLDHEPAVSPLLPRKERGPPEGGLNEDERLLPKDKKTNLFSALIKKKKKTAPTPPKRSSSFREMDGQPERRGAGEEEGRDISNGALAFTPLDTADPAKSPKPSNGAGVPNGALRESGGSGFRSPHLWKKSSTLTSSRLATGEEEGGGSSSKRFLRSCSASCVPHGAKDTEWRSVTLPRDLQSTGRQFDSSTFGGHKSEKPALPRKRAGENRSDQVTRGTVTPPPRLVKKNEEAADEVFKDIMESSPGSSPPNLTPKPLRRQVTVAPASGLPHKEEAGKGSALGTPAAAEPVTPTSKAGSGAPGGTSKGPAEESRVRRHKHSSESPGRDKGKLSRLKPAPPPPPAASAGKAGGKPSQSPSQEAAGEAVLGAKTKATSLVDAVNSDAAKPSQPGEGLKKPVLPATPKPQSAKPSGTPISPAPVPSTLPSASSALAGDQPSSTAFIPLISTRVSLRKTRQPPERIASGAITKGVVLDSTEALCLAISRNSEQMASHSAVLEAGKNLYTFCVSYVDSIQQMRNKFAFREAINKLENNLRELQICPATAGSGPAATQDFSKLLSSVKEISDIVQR
# SK-OV-3 = assay: Cytotoxicity against human SKOV3 cells by Alamar Blue assay; format: functional, cell-based
# [5] = Cytotoxicity against human CAL27 cells by Alamar Blue assay; format: functional, cell-based; details: CAL-27
# [6] = target: T1, Protein deacetylase HDAC6 (Homo sapiens, UniProt Q9UBN7); assay: Inhibition of human recombinant HDAC6 expressed in human HEK293 cells using Ac-NH-GGK(Ac)-AMC as substrate after 180 mins by fluorescence assay
# T1 sequence (Q9UBN7 whole entry): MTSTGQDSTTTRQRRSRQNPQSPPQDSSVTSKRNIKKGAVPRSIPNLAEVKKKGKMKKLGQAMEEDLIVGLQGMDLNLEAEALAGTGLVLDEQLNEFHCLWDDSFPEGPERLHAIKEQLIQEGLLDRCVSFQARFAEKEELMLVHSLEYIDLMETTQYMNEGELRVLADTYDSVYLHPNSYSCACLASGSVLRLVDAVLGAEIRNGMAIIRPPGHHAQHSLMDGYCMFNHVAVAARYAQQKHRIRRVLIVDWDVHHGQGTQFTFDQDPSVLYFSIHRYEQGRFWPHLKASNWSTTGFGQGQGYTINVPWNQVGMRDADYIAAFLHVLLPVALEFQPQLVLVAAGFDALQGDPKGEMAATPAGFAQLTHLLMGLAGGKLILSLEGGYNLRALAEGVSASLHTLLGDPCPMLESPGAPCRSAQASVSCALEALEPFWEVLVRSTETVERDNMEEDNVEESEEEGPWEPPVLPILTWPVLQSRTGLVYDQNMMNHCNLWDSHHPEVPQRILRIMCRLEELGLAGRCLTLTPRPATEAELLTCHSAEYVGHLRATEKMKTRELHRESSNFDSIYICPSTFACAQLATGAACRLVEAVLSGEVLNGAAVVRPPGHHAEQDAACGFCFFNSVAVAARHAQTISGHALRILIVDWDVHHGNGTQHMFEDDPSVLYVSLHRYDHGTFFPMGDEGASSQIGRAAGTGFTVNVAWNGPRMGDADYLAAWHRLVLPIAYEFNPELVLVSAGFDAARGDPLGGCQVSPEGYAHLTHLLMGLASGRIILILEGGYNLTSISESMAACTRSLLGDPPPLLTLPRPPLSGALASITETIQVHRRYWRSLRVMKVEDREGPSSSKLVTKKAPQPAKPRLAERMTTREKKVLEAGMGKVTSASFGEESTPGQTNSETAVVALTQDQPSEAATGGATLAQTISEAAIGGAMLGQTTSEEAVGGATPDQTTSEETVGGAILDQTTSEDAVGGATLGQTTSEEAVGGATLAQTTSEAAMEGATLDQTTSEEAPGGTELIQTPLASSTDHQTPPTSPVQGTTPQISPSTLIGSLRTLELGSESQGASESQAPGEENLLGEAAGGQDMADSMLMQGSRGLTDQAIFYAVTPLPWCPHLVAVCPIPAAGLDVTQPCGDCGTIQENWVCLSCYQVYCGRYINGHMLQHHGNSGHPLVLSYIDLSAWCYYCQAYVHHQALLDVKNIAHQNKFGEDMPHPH
# Insulin receptor = Insulin receptor (Homo sapiens, UniProt P06213); assay: Inhibition of recombinant InsR (unknown origin) using poly-Glu-Tyr peptide as substrate
# A549 = assay: Cytotoxicity against human A549 cells by Alamar Blue assay; format: functional, cell-based
# [7] = Cytotoxicity against human SKBR3 cells by Alamar Blue assay; format: functional, cell-based; details: SK-BR-3
# [8] = target: Cyclin-dependent kinase 2 (Homo sapiens, UniProt P24941); assay: Inhibition of recombinant CDK2 (unknown origin) using poly-Glu-Tyr peptide as substrate
# [9] = Inhibition of recombinant PKA (unknown origin) using poly-Glu-Tyr peptide as substrate; design: species or system Homo sapiens
# HeLa = assay: Cytotoxicity against human HeLa cells by Alamar Blue assay; format: functional, cell-based
# [10] = target: Serine/threonine-protein kinase PLK1 (Homo sapiens, UniProt P53350); assay: Inhibition of recombinant Plk1 (unknown origin) using poly-Glu-Tyr peptide as substrate
# Chain of Serine/threonine-protein kinase PLK1 (P53350 whole entry): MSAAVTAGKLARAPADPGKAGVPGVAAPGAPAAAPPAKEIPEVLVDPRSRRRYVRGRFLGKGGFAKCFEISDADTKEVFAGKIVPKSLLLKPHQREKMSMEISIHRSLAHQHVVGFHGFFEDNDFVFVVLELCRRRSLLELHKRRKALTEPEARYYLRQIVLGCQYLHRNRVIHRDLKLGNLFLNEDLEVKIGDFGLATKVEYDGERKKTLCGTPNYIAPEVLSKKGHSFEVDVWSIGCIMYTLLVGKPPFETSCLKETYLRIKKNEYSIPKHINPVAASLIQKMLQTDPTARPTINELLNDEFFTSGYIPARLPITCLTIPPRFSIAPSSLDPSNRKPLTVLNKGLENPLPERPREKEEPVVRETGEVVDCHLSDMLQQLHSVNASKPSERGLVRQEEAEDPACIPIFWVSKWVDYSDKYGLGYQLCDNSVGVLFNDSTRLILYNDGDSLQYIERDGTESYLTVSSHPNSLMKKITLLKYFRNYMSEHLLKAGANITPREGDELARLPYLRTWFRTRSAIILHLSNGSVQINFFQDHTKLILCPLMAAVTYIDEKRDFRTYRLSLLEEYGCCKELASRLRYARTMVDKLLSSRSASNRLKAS
# A-431 = assay: Cytotoxicity against human A431 cells by Alamar Blue assay; format: functional, cell-based
# Histone deacetylase 8 = target: T2, Histone deacetylase 8 (Homo sapiens, UniProt Q9BY41); assay: Inhibition of human recombinant HDAC8 expressed in Sf21 insect cells using Ac-NH-GGK(Ac)-AMC as substrate after 180 mins by fluorescence assay
# T2 sequence (Q9BY41 whole entry): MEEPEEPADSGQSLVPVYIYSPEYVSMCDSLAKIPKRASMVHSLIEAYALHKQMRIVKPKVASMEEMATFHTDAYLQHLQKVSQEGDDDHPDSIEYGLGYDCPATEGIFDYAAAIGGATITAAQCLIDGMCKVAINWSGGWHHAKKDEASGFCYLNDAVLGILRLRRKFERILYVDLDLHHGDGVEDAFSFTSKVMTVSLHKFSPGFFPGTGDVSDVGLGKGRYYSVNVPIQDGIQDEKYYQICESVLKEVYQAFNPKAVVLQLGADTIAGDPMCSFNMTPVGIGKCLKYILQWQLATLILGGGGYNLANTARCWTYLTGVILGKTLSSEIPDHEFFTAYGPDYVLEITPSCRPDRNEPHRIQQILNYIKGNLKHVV
# Histone deacetylase 1 [11] = target: T3, Histone deacetylase 1 (Homo sapiens, UniProt Q13547); assay: Inhibition of human recombinant HDAC1 expressed in human HEK293 cells using Ac-NH-GGK(Ac)-AMC as substrate after 180 mins by fluorescence assay
# T3 sequence (Q13547 whole entry): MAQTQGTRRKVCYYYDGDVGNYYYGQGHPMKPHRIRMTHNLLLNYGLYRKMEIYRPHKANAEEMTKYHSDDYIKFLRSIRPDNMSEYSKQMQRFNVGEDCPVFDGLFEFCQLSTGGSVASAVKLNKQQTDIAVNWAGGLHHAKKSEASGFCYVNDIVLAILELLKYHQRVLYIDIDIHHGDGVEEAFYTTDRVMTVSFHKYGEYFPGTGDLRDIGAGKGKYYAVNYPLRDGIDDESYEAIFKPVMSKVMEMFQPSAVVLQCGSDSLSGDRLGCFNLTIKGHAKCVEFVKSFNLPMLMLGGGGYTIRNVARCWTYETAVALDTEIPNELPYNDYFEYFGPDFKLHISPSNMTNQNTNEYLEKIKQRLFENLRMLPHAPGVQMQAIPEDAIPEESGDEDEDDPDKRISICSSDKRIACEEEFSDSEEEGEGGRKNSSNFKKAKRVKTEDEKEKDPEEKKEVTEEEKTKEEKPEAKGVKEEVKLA
# Histone deacetylase 3 [12] = target: T4, Histone deacetylase 3 (Homo sapiens, UniProt O15379); assay: Inhibition of human recombinant HDAC3 expressed in Sf21 insect cells using Ac-NH-GGK(Ac)-AMC as substrate after 180 mins by fluorescence assay
# T4 sequence (O15379 whole entry): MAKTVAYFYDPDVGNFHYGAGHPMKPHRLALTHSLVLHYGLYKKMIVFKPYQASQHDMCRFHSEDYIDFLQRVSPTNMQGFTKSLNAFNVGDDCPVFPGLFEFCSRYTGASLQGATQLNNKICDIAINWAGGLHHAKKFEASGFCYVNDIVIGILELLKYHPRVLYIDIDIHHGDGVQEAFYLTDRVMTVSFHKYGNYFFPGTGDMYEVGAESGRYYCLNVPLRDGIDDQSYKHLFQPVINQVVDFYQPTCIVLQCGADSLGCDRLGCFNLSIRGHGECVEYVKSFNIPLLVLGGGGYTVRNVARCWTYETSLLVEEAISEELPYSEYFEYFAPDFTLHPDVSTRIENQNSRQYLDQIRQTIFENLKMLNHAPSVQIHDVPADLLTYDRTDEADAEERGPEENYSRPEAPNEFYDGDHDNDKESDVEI
# [13] = target: Receptor tyrosine-protein kinase erbB-2 (Homo sapiens, UniProt P04626); assay: Inhibition of recombinant HER2 (unknown origin) using poly-Glu-Tyr peptide as substrate
# [14] = target: Platelet-derived growth factor receptor beta (Homo sapiens, UniProt P09619); assay: Inhibition of recombinant PDGFRbeta (unknown origin) using poly-Glu-Tyr peptide as substrate
# Chain of Platelet-derived growth factor receptor beta (P09619 whole entry): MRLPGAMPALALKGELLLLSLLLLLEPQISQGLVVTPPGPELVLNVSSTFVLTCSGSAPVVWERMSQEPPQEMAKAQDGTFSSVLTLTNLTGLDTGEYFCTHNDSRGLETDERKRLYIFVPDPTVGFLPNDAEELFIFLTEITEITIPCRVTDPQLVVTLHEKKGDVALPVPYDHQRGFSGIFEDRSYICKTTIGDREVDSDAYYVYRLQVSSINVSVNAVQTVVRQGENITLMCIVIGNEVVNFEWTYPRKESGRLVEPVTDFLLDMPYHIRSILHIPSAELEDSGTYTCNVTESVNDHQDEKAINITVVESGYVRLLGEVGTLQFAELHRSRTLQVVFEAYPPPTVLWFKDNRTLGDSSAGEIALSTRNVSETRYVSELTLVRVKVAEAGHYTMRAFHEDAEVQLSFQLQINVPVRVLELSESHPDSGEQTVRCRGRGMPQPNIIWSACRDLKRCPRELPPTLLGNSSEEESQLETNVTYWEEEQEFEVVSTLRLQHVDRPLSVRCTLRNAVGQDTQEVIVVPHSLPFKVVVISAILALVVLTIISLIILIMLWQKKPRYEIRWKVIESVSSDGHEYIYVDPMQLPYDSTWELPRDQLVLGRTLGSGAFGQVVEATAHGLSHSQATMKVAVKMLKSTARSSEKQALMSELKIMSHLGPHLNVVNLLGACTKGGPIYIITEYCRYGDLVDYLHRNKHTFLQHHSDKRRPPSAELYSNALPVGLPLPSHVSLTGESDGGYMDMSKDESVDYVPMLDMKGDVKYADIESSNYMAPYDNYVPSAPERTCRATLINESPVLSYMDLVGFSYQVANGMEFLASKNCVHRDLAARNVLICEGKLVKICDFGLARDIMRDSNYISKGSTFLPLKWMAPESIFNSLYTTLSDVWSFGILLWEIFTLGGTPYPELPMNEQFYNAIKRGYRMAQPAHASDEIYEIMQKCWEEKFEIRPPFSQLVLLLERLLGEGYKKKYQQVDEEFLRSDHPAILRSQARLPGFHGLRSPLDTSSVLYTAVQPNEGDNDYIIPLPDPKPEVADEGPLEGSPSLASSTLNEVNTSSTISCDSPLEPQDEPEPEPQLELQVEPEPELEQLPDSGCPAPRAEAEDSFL
# [15] = target: T5, Histone deacetylase (Homo sapiens) (UniProt Q13547+O15379+Q9UBN7+Q92769+Q9UQL6+Q8WUI4+Q9BY41+Q96DB2+P56524+Q9UKV0+Q969S8); assay: Inhibition of HDAC in human HeLa cell nuclear extracts using Ac-NH-GGK(Ac)-AMC as substrate after 180 mins by fluorescence assay relative to control; format: protein assay
# [16] = target: T5, Histone deacetylase (Homo sapiens); assay: Inhibition of HDAC in human HeLa cells using Boc-K(Ac)-AMC as substrate preincubated for 4 hrs before substrate addition measured after 3 hrs by fluorescence assay relative to control; format: cell-based
# Histone deacetylase 1 [17] = target: T3, Histone deacetylase 1; assay: Inhibition of human recombinant HDAC1 expressed in human HEK293 cells using Ac-NH-GGK(Ac)-AMC as substrate after 180 mins by fluorescence assay relative to control
# Histone deacetylase 3 [18] = target: T4, Histone deacetylase 3; assay: Inhibition of human recombinant HDAC3 expressed in Sf21 insect cells using Ac-NH-GGK(Ac)-AMC as substrate after 180 mins by fluorescence assay relative to control
# Chain of Epidermal growth factor receptor (P00533 whole entry): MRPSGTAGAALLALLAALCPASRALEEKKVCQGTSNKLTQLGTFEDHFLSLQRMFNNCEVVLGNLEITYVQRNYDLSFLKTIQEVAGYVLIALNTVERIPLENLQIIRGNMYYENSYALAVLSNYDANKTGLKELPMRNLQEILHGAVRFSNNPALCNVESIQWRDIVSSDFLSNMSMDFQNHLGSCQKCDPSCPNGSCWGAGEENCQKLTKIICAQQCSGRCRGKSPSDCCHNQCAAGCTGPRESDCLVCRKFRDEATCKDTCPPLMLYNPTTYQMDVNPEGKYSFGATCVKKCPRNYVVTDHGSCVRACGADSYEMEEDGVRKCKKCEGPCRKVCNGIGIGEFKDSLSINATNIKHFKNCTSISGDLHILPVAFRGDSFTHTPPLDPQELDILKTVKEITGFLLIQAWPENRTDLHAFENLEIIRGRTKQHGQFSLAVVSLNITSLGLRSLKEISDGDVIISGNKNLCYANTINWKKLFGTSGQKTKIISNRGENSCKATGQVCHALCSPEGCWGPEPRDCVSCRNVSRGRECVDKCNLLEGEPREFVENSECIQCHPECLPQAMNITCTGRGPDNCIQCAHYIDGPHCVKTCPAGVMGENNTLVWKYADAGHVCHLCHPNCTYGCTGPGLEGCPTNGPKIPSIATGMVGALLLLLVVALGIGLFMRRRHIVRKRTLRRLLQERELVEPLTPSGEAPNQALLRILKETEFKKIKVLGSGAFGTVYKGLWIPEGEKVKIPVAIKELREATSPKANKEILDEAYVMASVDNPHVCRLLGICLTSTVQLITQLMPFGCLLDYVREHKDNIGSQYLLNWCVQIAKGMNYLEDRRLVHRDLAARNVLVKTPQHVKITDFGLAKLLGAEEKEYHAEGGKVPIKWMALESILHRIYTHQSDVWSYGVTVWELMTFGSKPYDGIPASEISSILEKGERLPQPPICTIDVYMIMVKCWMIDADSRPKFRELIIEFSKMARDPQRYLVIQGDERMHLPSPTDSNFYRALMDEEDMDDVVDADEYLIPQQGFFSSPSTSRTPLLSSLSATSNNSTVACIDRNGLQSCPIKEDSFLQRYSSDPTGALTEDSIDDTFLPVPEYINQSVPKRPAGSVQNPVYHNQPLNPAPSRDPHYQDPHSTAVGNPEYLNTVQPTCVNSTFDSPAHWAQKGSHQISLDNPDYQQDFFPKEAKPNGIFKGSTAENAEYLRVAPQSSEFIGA
Structure (SMILES),IC50 (Histone deacetylase [1]),IC50 [2],IC50 (Histone deacetylase [3]),IC50 [4],IC50 (SK-OV-3),IC50 [5],IC50 [6],IC50 (Insulin receptor),IC50 (A549),IC50 [7],IC50 [8],IC50 [9],IC50 (HeLa),IC50 [10],IC50 (A-431),IC50 (Histone deacetylase 8),IC50 (Histone deacetylase 1 [11]),IC50 (Histone deacetylase 3 [12]),IC50 [13],Imax [15],also measured
C#Cc1cccc(Nc2ncnc3ccc(S(=O)(=O)n4ccc(/C=C/C(=O)NO)c4)cc23)c1,0.0064 µM,1.2 µM,0.034 µM,27 µM,0.56 µM,0.16 µM,0.0073 µM,65 µM,0.24 µM,0.19 µM,> 100 µM,> 100 µM,0.5 µM,> 100 µM,0.26 µM,0.59 µM,0.0065 µM,0.015 µM,3.4 µM,,IC50 [14]: 70 µM
C#Cc1cccc(Nc2ncnc3cc(NC(=O)c4ccc(C(=O)Nc5ccccc5N)nc4)ccc23)c1,0.51 µM,,> 5.01 µM,,> 50 µM,0.45 µM,> 32 µM,,2.1 µM,> 50 µM,,,1.5 µM,,0.79 µM,> 32 µM,5.6 µM,0.32 µM,,30%,
C#Cc1cccc(Nc2ncnc3cc(NC(=O)c4ccc(C(=O)Nc5ccccc5N)cc4)ccc23)c1,0.2 µM,,0.78 µM,,> 50 µM,0.46 µM,> 32 µM,,1.4 µM,39 µM,,,1.7 µM,,1.6 µM,> 32 µM,0.8 µM,0.5 µM,,30%,Imax [16]: 30%
C#Cc1cccc(Nc2ncnc3ccc(NC(=O)c4ccc(C(=O)Nc5ccccc5N)cc4)cc23)c1,> 32 µM,,> 15.8 µM,,> 50 µM,0.33 µM,> 32 µM,,> 50 µM,> 50 µM,,,> 50 µM,,> 16 µM,> 32 µM,10.5 µM,0.61 µM,,,
C#Cc1cccc(Nc2ncnc3ccc(NC(=O)c4ccc(C(=O)Nc5ccccc5N)nc4)cc23)c1,> 32 µM,,> 15.8 µM,,7.7 µM,8 µM,> 32 µM,,39 µM,11 µM,,,21.5 µM,,> 16 µM,> 32 µM,0.31 µM,0.44 µM,,,Imax (Histone deacetylase 1 [17]): 70%
C#Cc1cccc(Nc2ncnc3cc(NC(=O)c4ccc(C(=O)Nc5ccccc5N)s4)ccc23)c1,0.38 µM,,> 5.01 µM,,30 µM,1.2 µM,> 32 µM,,0.82 µM,33 µM,,,1.8 µM,,0.96 µM,> 32 µM,2.2 µM,0.77 µM,,30%,Imax (Histone deacetylase 1 [17]): 75%; Imax (Histone deacetylase 3 [18]): 70%
C#Cc1cccc(Nc2ncnc3cc(OCCOC)c(OCCOC)cc23)c1 [ERLOTINIB],> 32 µM,,> 15.8 µM,,31 µM,0.074 µM,> 32 µM,,> 50 µM,15 µM,,> 100 µM,8.3 µM,,2.5 µM,> 32 µM,> 32 µM,> 32 µM,,,
C#Cc1cccc(Nc2ncnc3ccc(NC(=O)c4ccc(C(=O)Nc5ccccc5N)s4)cc23)c1,> 32 µM,,> 15.8 µM,,> 50 µM,0.41 µM,> 32 µM,,> 50 µM,> 50 µM,,,> 50 µM,,> 16 µM,> 32 µM,8.6 µM,0.92 µM,,,
C#Cc1cccc(Nc2ncnc3ccc(OCc4ccc(C(=O)Nc5ccccc5N)cc4)cc23)c1,0.2 µM,0.078 µM,1.85 µM,7 µM,5.1 µM,0.61 µM,> 32 µM,36 µM,0.9 µM,3.4 µM,13 µM,> 100 µM,1.35 µM,> 100 µM,1.6 µM,> 32 µM,0.041 µM,0.55 µM,0.066 µM,50%,IC50 [14]: 7.2 µM
C#Cc1cccc(Nc2ncnc3ccc(S(=O)(=O)n4ccc(/C=C/C(=O)Nc5ccccc5N)c4)cc23)c1,7.2 µM,1.3 µM,4.24 µM,15 µM,5.7 µM,2.5 µM,> 32 µM,41 µM,3.7 µM,27 µM,17 µM,24 µM,3.45 µM,27 µM,3.7 µM,> 32 µM,0.091 µM,0.84 µM,2.9 µM,50%,IC50 [14]: 16 µM; Imax (Histone deacetylase 3 [18]): 75%
Nc1ccccc1NC(=O)c1ccc(COc2ccc3ncnc(Nc4cccc(Br)c4)c3c2)cc1,0.25 µM,0.033 µM,2.46 µM,11 µM,6.3 µM,0.62 µM,> 32 µM,150 µM,1.3 µM,5.1 µM,22 µM,> 100 µM,1.45 µM,> 100 µM,1.7 µM,> 32 µM,0.074 µM,0.51 µM,0.039 µM,,IC50 [14]: 28 µM; Imax (Histone deacetylase 3 [18]): 75%

# Reference: ChEMBL document CHEMBL3217617 (Medchemcomm, 2012)
